The record followed here is US11974990B2, “TXNIP-TRX complex inhibitors and methods of using the same” (City of Hope, priority 2018, dated 2024).

Common to all, as to assay type: cell-based
For assay [1], the system named is TXNIP mRNA. The assay can be described thus: TXNIP mRNA expression (RT-PCR) in murine RAW macrophages. The settings on record: RAW cells, 25 mM glucose, 72 h (FIG. 10A). The procedure: FIGS. 10A-10B. FIG. 10A. […] RAW cells were cultured in 25 mM glucose with C1 (uM) for 72 h. Total RNA was prepared. RT-PCR was performed. Data shown are the mean+SEM from triplicates. Statistical analysis was performed for each column vs. high glucose (HG) DMSO using one-way ANOVA: *<0.0001. FIG. 10B. […] RAW cells were cultured in 25 mM glucose with C1 (uM) for 72 hours. Total RNA was prepared. RT-PCR was performed. Data shown are the mean+SEM from triplicates. Statistical analysis was performed for each column vs. HG DMSO using one-way ANOVA: *<0.0001.
(§1) RNA extraction and quantitative RT-PCR. RNA was extracted using the Direct-zol™ RNA MiniPrep Plus (Zymo Research). Reverse transcription of RNA samples into cDNA was performed using the GeneAmp RNA PCR Kit (Applied Biosystems), dNTP (from Roche Applied Science), Rnase inhibitor, MULV Reverse Transcriptase and Random hexamers reagent (all from Invitrogen). Diluted cDNA was quantified using real-time PCR performed with Power SYBR Green qPCR MasterMix (Applied Biosystem) and 7500 real-time PCR system (Applied Biosystems). The HPRT1 gene was used as an internal control.

Assay [2] deals with TXNIP mRNA. The assay can be described thus: TXNIP mRNA expression (RT-PCR) in primary human pancreatic islets. As to conditions: human pancreatic islets (500 IEQ), 25 mM glucose, 48 h (FIG. 18). Here is the method: FIG. 18. […] Human pancreatic islets (500 IEQ) were cultured with PIM(R) (Prodo Labs) in 25 mM glucose with C1 as indicated for 48 h. Total RNA was collected. RT-PCR was performed in triplicate and data shown are the mean+SEM. Statistical analysis was performed using one-way ANOVA: *<0.0001.
as §1

Assay [3] deals with TXNIP mRNA. The assay can be described thus: TXNIP mRNA expression (RT-PCR) in murine MIN6 pancreatic beta cells. The settings on record: 25 mM glucose, 72 h (FIG. 11 left). The procedure: FIG. 11. […] MIN6 cells were cultured in 25 mM glucose with C1 at uM concentrations for 72 h. Total RNA was prepared. RT-PCR was performed. Data shown are the mean+SEM from triplicates. Statistical analysis was performed for each column vs. HG DMSO using one-way ANOVA: *<0.0001.
as §1

Entries after “also recorded” stand apart in the source; their conditions may differ.

Turning to `CC(C)C(C(=O)O)N1C(=O)c2ccncc2C1=O` (stereo not drawn) [Compound C1, 2-(1,3-dioxo-1,3-dihydro-2H-pyrrolo[3,4-c]pyridin-2-yl)-3-methylbutanoic acid], the “TXNIP mRNA expression” value in assay [1] is “inhibits TXNIP mRNA expression; also recorded: inhibited TXNIP and TNF-α mRNA expression”. In addition, the “TXNIP mRNA” value in assay [2] was “targets TXNIP mRNA; also recorded: efficiently inhibited TXNIP mRNA”. The “TXNIP mRNA levels” value in assay [3] is recorded as “decreased TXNIP”.
